Data taken from paper PMC6647725 (Analytical and Bioanalytical Chemistry, 2019).

Tests used:
[1] = test system: CDK6; conditions: cited from earlier work
[2] = Plasma pharmacokinetics in mice after oral administration; assay type: in vivo, mouse (FVB); conditions: FVB, po; mouse plasma, 10 mg/kg orally administered, t = 2 h; read-out: plasma concentration of representative sample
Protocol: This method was developed to support pharmacokinetic and tissue distribution studies of the CDK4/6 inhibitors in mice (FVB background). These studies were done separately for each drug. Animal housing and studies were conducted according to institutional guidelines complying with Dutch and European Union legislation (approval number from The Dutch Central Animal Testing Committee: AVD301002016595). […] Approximately 50 μL of blood was collected from the tip of the tail at several time points, except at the last one, when 500–1000 μL of blood was collected by cardiac puncture under isoflurane anesthesia. […] Mice were sacrificed by cervical dislocation and the organs were collected and weighed. Plasma was obtained using sodium heparin as anticoagulant after centrifugation at 9000g, 4 °C, for 6 min. When necessary, 10 μL of mouse plasma was diluted with 40 μL of human plasma. The tissue homogenates were prepared according to the procedure described in the “Tissue homogenate preparation” section. Plasma and tissue homogenate samples were stored at − 20 and − 70 °C, respectively, until the LC-MS/MS analysis was performed.

[3] = Stability in tissue homogenates; assay type: in vitro ADME, mouse; conditions: room temperature and ice/water bath
Protocol: (§1) The stability of each analyte was investigated in all the previously mentioned matrices. For plasma (both human and mouse), the stability was determined in triplicate at two concentration levels, QC L and QC H, whereas for mouse tissue homogenates only at QC M (except the brain in one stability condition). For all matrices, the following stability conditions were assessed: short term at room temperature (RT), long term at − 20 °C, and after 3 freeze-thaw (F/T) cycles at − 20 °C/RT. Furthermore, for tissue homogenates, the short-term stability in ice-water, long-term stability at − 70 °C, and F/T stability at − 70 °C/ice-water were also evaluated. Additionally, the stability in the final extract was tested. For this, the QC L and QC H final extracts from the plasma, brain, and spleen and the QC M final extract from the liver, kidney and small intestine were stored at 4–8 °C up to 3 days. Lastly, the stability of the stock solutions at − 20 °C was investigated.

[4] = test system: CDK4; conditions: cited from earlier work
[5] = Stability of stock solutions at − 20 °C; assay type: physicochemical; conditions: 1 mg/mL stock solution, storage at − 20 °C
Protocol: as §1

Q: With `CC(=O)c1c(C)c2cnc(Nc3ccc(N4CCNCC4)cn3)nc2n(C2CCCC2)c1=O` [Palbociclib] as the molecule, how does the IC50 [1] read?
A: 15 nM

Q: And the concentration at 2 h [2]?
A: 311 ng/mL

Q: What about the “time stable in kidney and spleen homogenates” value [3] of the same molecule?
A: at least 3 h

Q: And the “stability of stock solutions (time stable)” value [5]?
A: at least 12 months
